Experimental data taken from publication PMC12561453, “Synthesis and Structure–Activity Relationship Study of 2-(amino)quinazolin-4(3H)-one Derivatives as Potential Inhibitors of Methicillin-Resistant Staphylococcus aureus (MRSA)” (Antibiotics, 2025).
pIC50: −log10 of the molar value. In brackets after ≈: the same amount, converted by molar mass. Where two headings read alike, the source gives them in different places.

Assays:
S. aureus ATCC25923 = test: Broth microdilution dose-response, S. aureus ATCC25923; type: cell-based, Staphylococcus aureus; details: Staphylococcus aureus, ATCC25923, methicillin-sensitive strain; OD600 after 18–24 h; read-out: ATCC25923 MIC50
Text: (§1) The antistaphylococcal activities (MIC50) of the synthesized compounds were examined via a previously described broth microdilution method against two S. aureus strains: ATCC25923, a methicillin-sensitive reference strain, and JE2, a methicillin-resistant strain of the USA300 lineage (Figure 2, Table 1).
(§2) Staphylococcus aureus USA300, a methicillin-resistant strain, was obtained from the Nebraska Transposon Mutant Library. Staphylococcus aureus ATCC25923, a pan-drug-susceptible strain, was purchased from the American Type Culture Collection (ATCC) (Manassas, VA, USA). S. aureus strains were grown in Cation-Adjusted Mueller–Hinton broth (CAMHB) (Difco) at 37 °C. Bacterial strain stocks were stored in vials with 25% glycerol at −80 °C. For each experiment, overnight cultures were prepared by inoculating a frozen bacterial strain stock in 10 mL of CAMHB medium and incubating at 37 °C in a shaking incubator (180 rpm). For the preliminary screen and dose–response experiments, 100 µL of overnight culture was inoculated into 10 mL of fresh CAMHB and incubated for 3 h at 37 °C and 180 rpm.
(§3) Antibiotic susceptibility assay was tested according to modified Clinical and Laboratory Standards Institute (CLSI) laboratory guidelines for broth microdilution assays. S. aureus was cultured in CAMHB, and bacterial cells were prepared with an OD600 of 0.005. DRC plates were prepared by adding 40 µL of bacterial suspension to each well, where 10 µL of each compound had been dispensed for […] of two-fold serial dilutions starting at […]. After incubation of the plates at 37 °C for 18–24 h with 5% CO2, the growth of S. aureus was detected by measuring the OD600nm using an Ensight (Revvity) spectrometer (Revvity, Waltham, MA, USA).
(§4) Figure 2 In vitro antibacterial activities of 2-(amino)quinazolin-4(3H)-one derivatives. S. aureus ATCC25923 (blue) and USA300 JE (orange) strains were incubated with serial dilutions of 2-(amino)quinazolin-4(3H)-one derivatives (0.19–100 µM) for 18–24 h. The dose–responses were observed by measuring OD600nm. The plots were drawn from each group of strains with nonlinear curve fits.

S. aureus USA300 JE2 = test: Broth microdilution dose-response, S. aureus USA300 JE2 (MRSA); type: cell-based, Staphylococcus aureus; details: Staphylococcus aureus, USA300, USA300 JE2, methicillin-resistant; OD600 after 18–24 h; read-out: USA300 MIC50
Text: as §1, §2, §3, §4

HepG2 cells = test: In vitro cytotoxicity, HepG2 viability (resazurin); type: cell-based, human; details: HepG2 cells, 24 h, resazurin, read-out: HepG2 IC50
Method: The in vitro cytotoxicity of the compounds was evaluated by measuring the viability of HepG2 cells, a human liver cell line, following treatment in a dose–response manner, as previously described. […] The efficacy window was calculated as the ratio of IC50 in HepG2 cells to MIC50 against JE2.
To test cytotoxicity with compounds, the human liver cell line HepG2 (ATCC #HB-8065) was used for the assay. HepG2 was cultured in DMEM with 10% fetal bovine serum (FBS) in a 96-well microplate at 37 °C and 5% CO2. HepG2 cells were seeded at a final density of 5 × 10^4 cells/well, and DMEM-containing diluted compounds were added and incubated on the plates at 37 °C in 5% CO2 for 24 h. After that, resazurin (final concentration, 0.1 mg/mL) was added to each well and incubated on the plates at 37 °C in 5% CO2 for 2 h. To detect the fluorescence at 530 nm excitation and 590 nm emission, an Ensight multimode plate reader was used (Revvity, Waltham, MA, USA).

hERG = hERG (Homo sapiens, UniProt Q12809); test: hERG binding assay
Sequence of hERG (Q12809 whole entry): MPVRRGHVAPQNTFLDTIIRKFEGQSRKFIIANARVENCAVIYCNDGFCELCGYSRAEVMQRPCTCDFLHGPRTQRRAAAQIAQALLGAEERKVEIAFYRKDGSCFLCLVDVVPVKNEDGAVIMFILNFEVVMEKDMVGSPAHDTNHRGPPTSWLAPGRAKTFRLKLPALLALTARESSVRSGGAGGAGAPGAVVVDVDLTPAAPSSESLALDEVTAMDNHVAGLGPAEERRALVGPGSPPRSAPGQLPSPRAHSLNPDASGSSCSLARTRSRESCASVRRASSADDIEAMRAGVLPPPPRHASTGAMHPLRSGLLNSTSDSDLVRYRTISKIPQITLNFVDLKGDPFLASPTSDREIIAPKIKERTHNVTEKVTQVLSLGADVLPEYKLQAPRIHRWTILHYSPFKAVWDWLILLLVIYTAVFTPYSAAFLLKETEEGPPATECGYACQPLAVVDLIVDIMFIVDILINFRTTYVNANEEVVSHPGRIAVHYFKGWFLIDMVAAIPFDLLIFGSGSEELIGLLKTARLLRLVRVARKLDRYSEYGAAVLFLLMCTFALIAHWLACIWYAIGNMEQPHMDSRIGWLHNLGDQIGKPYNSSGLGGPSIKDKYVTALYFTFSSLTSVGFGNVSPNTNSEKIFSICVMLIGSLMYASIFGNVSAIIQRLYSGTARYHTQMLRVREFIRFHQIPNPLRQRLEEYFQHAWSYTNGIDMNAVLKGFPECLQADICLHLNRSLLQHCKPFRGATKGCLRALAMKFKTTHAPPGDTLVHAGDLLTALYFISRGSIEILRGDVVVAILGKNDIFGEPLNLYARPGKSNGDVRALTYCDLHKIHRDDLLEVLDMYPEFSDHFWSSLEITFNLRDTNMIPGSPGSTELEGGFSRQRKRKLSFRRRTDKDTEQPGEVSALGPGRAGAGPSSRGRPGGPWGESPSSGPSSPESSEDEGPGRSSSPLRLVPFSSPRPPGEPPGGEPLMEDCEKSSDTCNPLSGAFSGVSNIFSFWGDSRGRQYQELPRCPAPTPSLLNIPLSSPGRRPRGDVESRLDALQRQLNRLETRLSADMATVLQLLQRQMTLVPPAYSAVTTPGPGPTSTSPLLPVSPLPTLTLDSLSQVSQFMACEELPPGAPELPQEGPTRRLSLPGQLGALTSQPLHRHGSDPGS
Method: (§5) Table S1. Results of hERG binding assay and cytotoxicity of 6l and 6y
(§6) Compound hERGa CytotoxicityVERO HFL-1 L929 NIH 3T3 CHO-K1
(§7) a % inhibition at 10 μM concentrations. b IC50 values in various mammalian cell lines. […]

in vitro = type: cell-based; details: Chinese hamster
Method: as §5, §6, §7

[1] = Microsomal stability, rat; type: in vitro ADME; details: rat microsomes
Method: (§8) Table S2. Result of microsomal stability, plasma protein binding rate, and CYP inhibition of 6l and 6y
(§9) Compound MSa PPBrat human rat human 1A2 2C9 2C19 2D6 3A4
(§10) a % of remaining after 30 min. b plasma protein binding rate (%) at 5 μM concentrations. c % of CYP
(§11) inhibition in human liver microsomes at 10 μM concentrations. […]

[2] = Microsomal stability, human; type: in vitro ADME; details: human microsomes
Method: as §8, §9, §10, §11

CYP2C9 = target: T1, CYP2C9 (Homo sapiens, UniProt P11712); test: CYP inhibition in human liver microsomes, 2C9; type: in vitro ADME
T1 construct: from tissue; host or cells: human liver microsomes
T1 sequence (P11712 whole entry): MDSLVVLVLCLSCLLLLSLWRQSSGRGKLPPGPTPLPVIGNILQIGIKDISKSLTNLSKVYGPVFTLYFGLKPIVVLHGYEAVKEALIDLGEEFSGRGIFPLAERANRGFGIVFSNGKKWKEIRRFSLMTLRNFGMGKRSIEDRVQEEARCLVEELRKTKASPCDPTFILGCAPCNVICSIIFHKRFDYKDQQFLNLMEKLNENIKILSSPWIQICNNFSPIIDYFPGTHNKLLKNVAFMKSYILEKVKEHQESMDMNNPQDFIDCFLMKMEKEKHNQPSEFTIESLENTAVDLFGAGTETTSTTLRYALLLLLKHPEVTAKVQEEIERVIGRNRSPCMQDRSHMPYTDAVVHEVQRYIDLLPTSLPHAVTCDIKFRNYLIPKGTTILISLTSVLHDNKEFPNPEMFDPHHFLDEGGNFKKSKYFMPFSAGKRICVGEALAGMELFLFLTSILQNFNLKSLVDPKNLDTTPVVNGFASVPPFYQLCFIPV
Method: as §8, §9, §10, §11

CYP2D6 = target: T2, CYP2D6 (Homo sapiens, UniProt P10635); test: CYP inhibition in human liver microsomes, 2D6; type: in vitro ADME
T2 construct: from tissue; host or cells: human liver microsomes
T2 sequence (P10635 whole entry): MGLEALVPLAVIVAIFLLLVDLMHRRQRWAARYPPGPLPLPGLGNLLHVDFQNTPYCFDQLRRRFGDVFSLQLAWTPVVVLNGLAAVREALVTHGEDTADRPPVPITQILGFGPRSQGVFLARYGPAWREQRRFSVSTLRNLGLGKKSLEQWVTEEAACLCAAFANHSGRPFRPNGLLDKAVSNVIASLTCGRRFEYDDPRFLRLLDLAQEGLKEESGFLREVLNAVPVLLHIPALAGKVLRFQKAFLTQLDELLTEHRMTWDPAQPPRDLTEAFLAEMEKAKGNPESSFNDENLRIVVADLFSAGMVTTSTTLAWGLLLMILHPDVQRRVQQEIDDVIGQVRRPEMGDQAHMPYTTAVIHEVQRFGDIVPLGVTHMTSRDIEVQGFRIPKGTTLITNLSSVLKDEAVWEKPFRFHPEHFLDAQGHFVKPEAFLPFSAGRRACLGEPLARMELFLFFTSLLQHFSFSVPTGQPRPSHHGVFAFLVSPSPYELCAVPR
Method: as §8, §9, §10, §11

[3] = Rat pharmacokinetic study; type: in vivo; details: male rats
Method: Table S3. Rat pharmacokinetic study of 6l and 6y
Parametersa I.V., 2 mg/kg P.O., 10 mg/kg I.V., 5 mg/kg P. O . , 1 0 mg/kg
Cmax ([…]) NA 0.9 NA 0.2
CL (L/h/kg) 0.25 NA 1.8 NA
a All results are mean of experiments using three male rats. b NA: not applicable

[4] = rat, in vivo, iv, I.V., 5 mg/kg

Q: What does the source list for O=c1[nH]c(Nc2cc(Cl)cc(Cl)c2)nc2cc(Cl)ccc12 [6l, 7-Chloro-2-((3,5-dichlorophenyl)amino)quinazolin-4(3H)-one]?
A: MIC50 (S. aureus ATCC25923): 1 µM (≈ 0.341 µg/mL); MIC50 (S. aureus USA300 JE2): 0.6 µM (≈ 0.204 µg/mL); pIC50 (HepG2 cells): 4.21; pIC50 (HepG2 cells; Homo sapiens, HepG2, 24 h): 4.21; inhibition at 10 µM (hERG): 37.8%; pIC50 (in vitro): 4.96; MS rat, % of remaining after 30 min [1]: 104.7%; MS human, % of remaining after 30 min [2]: 99.3%; inhibition at 10 µM (CYP2C9): 18.2%; inhibition at 10 µM (CYP2D6): 20.1%; AUC ([3]; I.V., 2 mg/kg): 8500 ng·h/mL; CL ([3]; I.V., 2 mg/kg): 4.17 mL/min/kg; T1/2 ([3]; I.V., 2 mg/kg): 2.2 h; Vss ([3]; I.V., 2 mg/kg): 1.6 L/kg; AUC ([3]; P.O., 10 mg/kg): 6600 ng·h/mL; Cmax ([3]; P.O., 10 mg/kg): 0.9; Ft ([3]; P.O., 10 mg/kg): 15.6%; T1/2 ([3]; P.O., 10 mg/kg): 5.7 h; Tmax ([3]; P.O., 10 mg/kg): 2.5 h

Q: Which MIC50 (S. aureus ATCC25923) does the source give for O=c1[nH]c(NCc2ccc(F)c(F)c2)nc2cc(Cl)ccc12 [6y, 7-Chloro-2-((3,4-difluorobenzyl)amino)quinazolin-4(3H)-one] here?
A: 0.36 µM (≈ 0.116 µg/mL)

Q: What about the MIC50 (S. aureus USA300 JE2) of the same compound?
A: 0.02 µM (≈ 0.00643 µg/mL)

Q: What about the pIC50 (HepG2 cells; Homo sapiens, HepG2, 24 h) of the same compound?
A: 4.69

Q: What about the inhibition at 10 µM (hERG) of the same compound?
A: 11.4%

Q: And the pIC50 (in vitro)?
A: 4.29

Q: What about the “MS rat, % of remaining after 30 min” value [1] of the same compound?
A: 53.8%

Q: And the “MS human, % of remaining after 30 min” value [2]?
A: 42.9%

Q: And the inhibition at 10 µM (CYP2C9)?
A: 91%

Q: And the inhibition at 10 µM (CYP2D6)?
A: 90.1%

Q: And the Ft ([3]; P.O., 10 mg/kg)?
A: 33.4%

Q: And the clearance [3, 4]?
A: 30 mL/min/kg

Q: What about the half-life [3, 4] of the same compound?
A: 8.5 h

Q: What about the AUC ([3]; rat, in vivo, iv, I.V., 5 mg/kg, read-out: AUC) of the same compound?
A: 2800 ng·h/mL

Q: What about the Vd ([3]; rat, in vivo, iv, I.V., 5 mg/kg, read-out: Vss) of the same compound?
A: 5.2 L/kg

Q: And the half-life ([3]; rat, in vivo, po, P.O., 10 mg/kg)?
A: 3.6 h

Q: And the AUC ([3]; rat, in vivo, po, P.O., 10 mg/kg, read-out: AUC)?
A: 1900 ng·h/mL

Q: What about the Cmax ([3]; rat, in vivo, po, P.O., 10 mg/kg, read-out: Cmax) of the same compound?
A: 200 ng/mL

Q: What about the Tmax ([3]; rat, in vivo, po, P.O., 10 mg/kg, read-out: Tmax) of the same compound?
A: 5.3 h
